The assay concerns MV-4-11 cells. Briefly: Gene expression microarray analysis (Affymetrix PrimeView) and GSEA. The conditions noted are these: MV-4-11 cells, 48 hours. Details: RFU PODN (11730768_x_at) / Fold change /veh PODN (11730768_x_at) / RFU LINC00158 (11744669_a_at) / Fold change /veh LINC00158 (11744669_a_at) / RFU DUSP10 (11751237_a_at) / Fold change /veh DUSP10 (11751237_a_at) / RFU ID3 (11757404_x_at) / Fold change /veh ID3 (11757404_x_at) / RFU PLEKHG5 (11737974_s_at) / Fold change /veh PLEKHG5 (11737974_s_at) / RFU LRRC4B (11730491_at) / Fold change /veh LRRC4B (11730491_at) / RFU GIMAP4 (11747438_a_at) / Fold change /veh GIMAP4 (11747438_a_at) / RFU KRT8 (11758183_x_at) / Fold change /veh KRT8 (11758183_x_at) / RFU CNN1 (11734310_a_at) / Fold change /veh CNN1 (11734310_a_at) / RFU VPS37D (11726825_at) / Fold change /veh VPS37D (11726825_at) / RFU C10orf10 (11716522_x_at) / Fold change /veh C10orf10 (11716522_x_at) / RFU KIR2DL2 /// KIR2DL4 /// KIR2DL5A /// KIR2DL5B /// KIR2DS1 /// KIR2DS2 /// KIR2DS3 /// KIR2DS4 /// KIR3DL3 /// KIR3DL3 /// KIR3DS1 (11738374_at) / Fold change /veh KIR2DL2 /// KIR2DL4 /// KIR2DL5A /// KIR2DL5B /// KIR2DS1 /// KIR2DS2 /// KIR2DS3 /// KIR2DS4 /// KIR3DL3 /// KIR3DL3 /// KIR3DS1 (11738374_at) / RFU C1QL1 (11718748_at) / Fold change /veh C1QL1 (11718748_at) / RFU TMPRSS4 (11747572_a_at) / Fold change /veh TMPRSS4 (11747572_a_at) / RFU HAMP (11756126_x_at) / Fold change /veh HAMP (11756126_x_at) / RFU RNFT2 (11725882_a_at) / Fold change /veh RNFT2 (11725882_a_at) / RFU NR4A2 (11747474_a_at) / Fold change /veh NR4A2 (11747474_a_at) / RFU ABCC12 (11746883_a_at) / Fold change /veh ABCC12 (11746883_a_at) / RFU TMEM136 (11760407_x_at) / Fold change /veh TMEM136 (11760407_x_at) / RFU CLDN22 /// WWC2 (11732394_at) / Fold change /veh CLDN22 /// WWC2 (11732394_at) / RFU HLA-DPB1 (11760878_x_at) / Fold change /veh HLA-DPB1 (11760878_x_at) / RFU SPINT1 (11716480_a_at) / Fold change /veh SPINT1 (11716480_a_at) / RFU GAP43 (11754022_s_at) / Fold change /veh GAP43 (11754022_s_at) / RFU A4GNT (11735810_at) / Fold change /veh A4GNT (11735810_at) / RFU PRB3 (11715151_x_at) / Fold change /veh PRB3 (11715151_x_at) / RFU TUBB4B (11761932_at) / Fold change /veh TUBB4B (11761932_at) / RFU CAPN14 (11732068_a_at) / Fold change /veh CAPN14 (11732068_a_at) / RFU TMCC2 (11721928_a_at) / Fold change /veh TMCC2 (11721928_a_at) / RFU IRGQ (11745062_a_at) / Fold change /veh IRGQ (11745062_a_at) / RFU FAM174B (11720279_a_at) / Fold change /veh FAM174B (11720279_a_at) / RFU TMPRSS4 (11748680_a_at) / Fold change /veh TMPRSS4 (11748680_a_at) / RFU FAM212B (11763350_a_at) / Fold change /veh FAM212B (11763350_a_at) / RFU PLEKHG5 (11743358_a_at) / Fold change /veh PLEKHG5 (11743358_a_at) / RFU ZSCAN30 (11745921_a_at) / Fold change /veh ZSCAN30 (11745921_a_at) / RFU CMKLR1 (11741424_a_at) / Fold change /veh CMKLR1 (11741424_a_at) / RFU LOC101060620 /// MAPK8IP1 (11723275_at) / Fold change /veh LOC101060620 /// MAPK8IP1 (11723275_at) / RFU SPTSSB (11747773_x_at) / Fold change /veh SPTSSB (11747773_x_at) / RFU PRSS12 (11739890_at) / Fold change /veh PRSS12 (11739890_at) / RFU BIN1 (11741810_x_at) / Fold change /veh BIN1 (11741810_x_at) / RFU WNT11 (11732464_a_at) / Fold change /veh WNT11 (11732464_a_at) / RFU C10orf10 (11716521_a_at) / Fold change /veh C10orf10 (11716521_a_at) / RFU C5orf56 (11738089_at) / Fold change /veh C5orf56 (11738089_at) / RFU CYB561 (11721691_x_at) / Fold change /veh CYB561 (11721691_x_at) / RFU ANKRD19P (11752326_a_at) / Fold change /veh ANKRD19P (11752326_a_at) / RFU OR2T12 /// OR2T33 /// OR2T8 (11738714_s_at) / Fold change /veh OR2T12 /// OR2T33 /// OR2T8 (11738714_s_at) / RFU VCAN (11748164_a_at) / Fold change /veh VCAN (11748164_a_at) / RFU JSRP1 (11732532_at) / Fold change /veh JSRP1 (11732532_at) / RFU KRTAP10-11 (11738290_x_at) / Fold change /veh KRTAP10-11 (11738290_x_at) / RFU MYO3A (11730013_a_at) / Fold change /veh MYO3A (11730013_a_at) / RFU EBF3 (11725865_a_at) / Fold change /veh EBF3 (11725865_a_at) / RFU CAMK2N1 (11719241_x_at) / Fold change /veh CAMK2N1 (11719241_x_at) / RFU C5orf56 (11738088_a_at) / Fold change /veh C5orf56 (11738088_a_at) / RFU OLFML3 (11715873_a_at) / Fold change /veh OLFML3 (11715873_a_at) / RFU LOC100653217 /// NTM (11731650_a_at) / Fold change /veh LOC100653217 /// NTM (11731650_a_at) / RFU MAPK11 (11762145_a_at) / Fold change /veh MAPK11 (11762145_a_at) / RFU FIZ1 (11724087_x_at) / Fold change /veh FIZ1 (11724087_x_at) / RFU OASL (11726364_x_at) / Fold change /veh OASL (11726364_x_at) / RFU SOX15 (11748057_x_at) / Fold change /veh SOX15 (11748057_x_at) / RFU CD79A (11719716_a_at) / Fold change /veh CD79A (11719716_a_at) / RFU HIST1H1D (11736915_at) / Fold change /veh HIST1H1D (11736915_at) / RFU CASKIN2 (11723855_a_at) / Fold change /veh CASKIN2 (11723855_a_at) / RFU LOC730098 (11760151_x_at) / Fold change /veh LOC730098 (11760151_x_at) / RFU OR4N2 (11742367_at) / Fold change /veh OR4N2 (11742367_at) / RFU PRRT2 (11749266_a_at) / Fold change /veh PRRT2 (11749266_a_at) / RFU SNX32 (11753110_a_at) / Fold change /veh SNX32 (11753110_a_at) / RFU CDHR5 (11726645_a_at) / Fold change /veh CDHR5 (11726645_a_at) / RFU RCAN1 (11760418_a_at) / Fold change /veh RCAN1 (11760418_a_at) / RFU FAM167A (11723789_a_at) / Fold change /veh FAM167A (11723789_a_at) / RFU FAM26E (11764081_at) / Fold change /veh FAM26E (11764081_at) / RFU ISYNA1 (11749810_s_at) / Fold change /veh ISYNA1 (11749810_s_at) / RFU ACY1 (11761880_at) / Fold change /veh ACY1 (11761880_at) / RFU 11764098_at / Fold change /veh 11764098_at / RFU SAMD14 (11745864_x_at) / Fold change /veh SAMD14 (11745864_x_at) / RFU NPB (11741838_a_at) / Fold change /veh NPB (11741838_a_at) / RFU TMPRSS6 (11731388_a_at) / Fold change /veh TMPRSS6 (11731388_a_at) / RFU KRTAP10-2 (11738614_at) / Fold change /veh KRTAP10-2 (11738614_at) / RFU ARHGAP8 /// PRR5-ARHGAP8 (11727945_x_at) / Fold change /veh ARHGAP8 /// PRR5-ARHGAP8 (11727945_x_at) / RFU KRTAP5-7 /// NADSYN1 (11734609_at) / Fold change /veh KRTAP5-7 /// NADSYN1 (11734609_at) / RFU RASL12 (11751679_a_at) / Fold change /veh RASL12 (11751679_a_at) / RFU CDKN2B (11736163_a_at) / Fold change /veh CDKN2B (11736163_a_at) / RFU PRF1 (11729649_at) / Fold change /veh PRF1 (11729649_at) / RFU, ZNF638 /// ZNF638-IT1 / Fold change vs veh, ZNF638 /// ZNF638-IT1 / RFU, PANK3 / Fold change vs veh, PANK3 / RFU, SH3YL1 / Fold change vs veh, SH3YL1 / RFU, ZEB2 / Fold change vs veh, ZEB2 / RFU, NRIP1 / Fold change vs veh, NRIP1 / RFU, PTTG1IP / Fold change vs veh, PTTG1IP / RFU, CAPN2 / Fold change vs veh, CAPN2 / RFU, MED14 / Fold change vs veh, MED14 / RFU, SNORA58 / Fold change vs veh, SNORA58 / RFU, C1orf63 / Fold change vs veh, C1orf63 / RFU, LRRFIP1 / Fold change vs veh, LRRFIP1 / RFU, NDUFAF7 / Fold change vs veh, NDUFAF7 / RFU, SLC12A2 / Fold change vs veh, SLC12A2 / RFU, IBTK / Fold change vs veh, IBTK / RFU, ESF1 / Fold change vs veh, ESF1 / Fold change vs veh, TMEM50B / RFU, TAOK1 / Fold change vs veh, TAOK1 / RFU, ACBD3 / Fold change vs veh, ACBD3 / RFU, TMA16 / Fold change vs veh, TMA16 / RFU, RWDD3 / Fold change vs veh, RWDD3 / RFU, BCAT1 / Fold change vs veh, BCAT1 / RFU, EDEM3 / Fold change vs veh, EDEM3 / RFU, TMEM33 / Fold change vs veh, TMEM33 / RFU, WDR75 / Fold change vs veh, WDR75 / RFU, AHCTF1 / Fold change vs veh, AHCTF1 / RFU, TFRC / Fold change vs veh, TFRC / RFU, ZDHHC17 / Fold change vs veh, ZDHHC17 / RFU, NOM1 / Fold change vs veh, NOM1 / RFU, ARL8B / Fold change vs veh, ARL8B / RFU, ZBTB11 / Fold change vs veh, ZBTB11 / RFU, TAMM41 / Fold change vs veh, TAMM41 / RFU, KIAA1704 /// LOC100996395 / Fold change vs veh, KIAA1704 /// LOC100996395 / RFU, ING1 / Fold change vs veh, ING1 / RFU, TRMT61B / Fold change vs veh, TRMT61B / RFU, FUBP3 / Fold change vs veh, FUBP3 / RFU, TP53 / Fold change vs veh, TP53 / RFU, TNKS2 / Fold change vs veh, TNKS2 / RFU, ZFP14 / Fold change vs veh, ZFP14 / RFU, ACTR2 / Fold change vs veh, ACTR2 / RFU, PPP3R1 / Fold change vs veh, PPP3R1 / RFU, PIK3R1 / Fold change vs veh, PIK3R1 / RFU, HNRNPA1 / Fold change vs veh, HNRNPA1 / RFU, RNF170 / Fold change vs veh, RNF170 / RFU, ZNF28 / Fold change vs veh, ZNF28 / RFU, RNGTT / Fold change vs veh, RNGTT / RFU, OGT / Fold change vs veh, OGT / RFU, BRD1 / Fold change vs veh, BRD1 / RFU, MARS / Fold change vs veh, MARS / RFU, ZNF655 / Fold change vs veh, ZNF655 / RFU, FAHD1 / Fold change vs veh, FAHD1 / RFU, BDP1 / Fold change vs veh, BDP1 / RFU, LRRCC1 / Fold change vs veh, LRRCC1 / RFU, ARID1A / Fold change vs veh, ARID1A / RFU, ZNF146 / Fold change vs veh, ZNF146 / RFU, ZNF330 / Fold change vs veh, ZNF330 / RFU, GPN3 / Fold change vs veh, GPN3 / RFU, C9orf123 / Fold change vs veh, C9orf123 / RFU, N4BP2L2 / Fold change vs veh, N4BP2L2 / RFU, ARFIP1 / Fold change vs veh, ARFIP1 / RFU, FAM179B / Fold change vs veh, FAM179B / RFU, BCL10 / Fold change vs veh, BCL10 / RFU, UHRF1BP1L / Fold change vs veh, UHRF1BP1L / RFU, BET1 / Fold change vs veh, BET1 / RFU, CNOT2 / Fold change vs veh, CNOT2 / RFU, ZNF268 / Fold change vs veh, ZNF268 / Fold change vs veh, ZNF507 / RFU, DGCR2 / Fold change vs veh, DGCR2 / RFU, WDSUB1 / Fold change vs veh, WDSUB1 / Fold change vs veh, HSP90B1 /// MIR3652 / RFU, ADSS / Fold change vs veh, ADSS / RFU, GK / Fold change vs veh, GK / RFU, ZNF148 / Fold change vs veh, ZNF148 / RFU, TAF9 / Fold change vs veh, TAF9 / RFU, SLC1A5 / Fold change vs veh, SLC1A5 / RFU, SLMO2 / Fold change vs veh, SLMO2 / RFU, ABCC4 / Fold change vs veh, ABCC4 / RFU, LOC101060439 /// RAP1B / Fold change vs veh, LOC101060439 /// RAP1B / RFU, RFX7 / Fold change vs veh, RFX7 / RFU, GTPBP10 / Fold change vs veh, GTPBP10 / RFU, CNEP1R1 / Fold change vs veh, CNEP1R1 / RFU, BIVM-ERCC5 /// ERCC5 / Fold change vs veh, BIVM-ERCC5 /// ERCC5 / RFU, ILF3 / Fold change vs veh, ILF3 / RFU 11762660_at / Fold change /veh 11762660_at / RFU VCAN (11757783_s_at) / Fold change /veh VCAN (11757783_s_at) / RFU DDX43 (11728927_at) / Fold change /veh DDX43 (11728927_at) / RFU KRT8 (11758188_x_at) / Fold change /veh KRT8 (11758188_x_at) / RFU NKD1 (11759106_at) / Fold change /veh NKD1 (11759106_at) / RFU SRD5A1 (11742802_a_at) / Fold change /veh SRD5A1 (11742802_a_at) / RFU TPSAB1 /// TPSB2 (11721975_s_at) / Fold change /veh TPSAB1 /// TPSB2 (11721975_s_at) / RFU GSTM3 (11746129_a_at) / Fold change /veh GSTM3 (11746129_a_at) / RFU IL23R (11737362_x_at) / Fold change /veh IL23R (11737362_x_at) / RFU TMEM51 (11727254_a_at) / Fold change /veh TMEM51 (11727254_a_at) / RFU PIWIL2 (11732686_x_at) / Fold change /veh PIWIL2 (11732686_x_at) / RFU ORM1 (11744905_x_at) / Fold change /veh ORM1 (11744905_x_at) / RFU CCDC152 (11743942_at) / Fold change /veh CCDC152 (11743942_at) / RFU ECM1 (11717891_a_at) / Fold change /veh ECM1 (11717891_a_at) / RFU IL23R (11748794_a_at) / Fold change /veh IL23R (11748794_a_at) / RFU TNFAIP8L3 (11732012_x_at) / Fold change /veh TNFAIP8L3 (11732012_x_at) / RFU MBOAT4 (11741988_at) / Fold change /veh MBOAT4 (11741988_at) / RFU 11764193_at / Fold change /veh 11764193_at / RFU TMEM53 (11763286_at) / Fold change /veh TMEM53 (11763286_at) / RFU MAGEB2 (11727129_at) / Fold change /veh MAGEB2 (11727129_at) / RFU TMEM200A (11744735_a_at) / Fold change /veh TMEM200A (11744735_a_at) / RFU CCDC152 (11751479_a_at) / Fold change /veh CCDC152 (11751479_a_at) / RFU FAM211A (11726209_a_at) / Fold change /veh FAM211A (11726209_a_at) / RFU RGS16 (11746705_a_at) / Fold change /veh RGS16 (11746705_a_at) / RFU VCAN (11755009_s_at) / Fold change /veh VCAN (11755009_s_at) / RFU RHOB (11743442_s_at) / Fold change /veh RHOB (11743442_s_at) / RFU RGS16 (11720943_a_at) / Fold change /veh RGS16 (11720943_a_at) / RFU RGS16 (11720944_at) / Fold change /veh RGS16 (11720944_at) / RFU, VPS4B / Fold change vs veh, VPS4B / RFU, CREB1 / Fold change vs veh, CREB1 / RFU, DNAJC13 / Fold change vs veh, DNAJC13 / RFU, GNAQ / Fold change vs veh, GNAQ / RFU, CDK5R1 / Fold change vs veh, CDK5R1 / RFU, ZRANB3 / Fold change vs veh, ZRANB3 / RFU, CUL4A / Fold change vs veh, CUL4A / RFU, CCNY / Fold change vs veh, CCNY / RFU, UFL1 / Fold change vs veh, UFL1 / RFU, COG3 / Fold change vs veh, COG3 / RFU, DIAPH2 / Fold change vs veh, DIAPH2 / RFU, SKA2 / Fold change vs veh, SKA2 / RFU, AFF3 / Fold change vs veh, AFF3 / RFU, LMF1 / Fold change vs veh, LMF1 / RFU, IPO11 / Fold change vs veh, IPO11 / RFU, DFFB / Fold change vs veh, DFFB / RFU, FOXP1 / Fold change vs veh, FOXP1 / RFU, CARD8 / Fold change vs veh, CARD8 / RFU, STRN3 / Fold change vs veh, STRN3 / RFU, ADK / Fold change vs veh, ADK / RFU, RASSF2 / Fold change vs veh, RASSF2 / RFU, WIPF1 / Fold change vs veh, WIPF1 / RFU, LARP1B / Fold change vs veh, LARP1B / RFU, RASA1 / Fold change vs veh, RASA1 / RFU, RB1 / Fold change vs veh, RB1 / RFU, PPFIA1 / Fold change vs veh, PPFIA1 / RFU, MAT2A / Fold change vs veh, MAT2A / RFU, CCT5 / Fold change vs veh, CCT5 / RFU, WDR92 / Fold change vs veh, WDR92 / RFU, CUX1 / Fold change vs veh, CUX1 / RFU, TTC7A / Fold change vs veh, TTC7A / RFU, TMEM135 / Fold change vs veh, TMEM135 / RFU, DEPTOR / Fold change vs veh, DEPTOR / RFU, CPM / Fold change vs veh, CPM / RFU, DNAJB6 / Fold change vs veh, DNAJB6 / RFU, CACNA2D3 / Fold change vs veh, CACNA2D3 / RFU, DTX4 / Fold change vs veh, DTX4 / RFU, TFCP2 / Fold change vs veh, TFCP2 / RFU, GMCL1 /// GMCL1P1 / Fold change vs veh, GMCL1 /// GMCL1P1 / RFU, AEBP2 / Fold change vs veh, AEBP2 / RFU, SNHG1 /// SNORD22 /// SNORD25 /// SNORD26 /// SNORD27 /// SNORD28 /// SNORD29 /// SNORD31 / Fold change vs veh, SNHG1 /// SNORD22 /// SNORD25 /// SNORD26 /// SNORD27 /// SNORD28 /// SNORD29 /// SNORD31 / Fold change (Aza/veh), C12orf56 (ProbeSet 11735607_a_at) / Fold change (ACY-1035/veh), C12orf56 (ProbeSet 11735607_a_at) / Fold change (Aza/veh), FGFR1OP (ProbeSet 11751329_s_at) / Fold change (ACY-1035/veh), FGFR1OP (ProbeSet 11751329_s_at) / Fold change (Aza/veh), VPS36 (ProbeSet 11739960_a_at) / Fold change (ACY-1035/veh), VPS36 (ProbeSet 11739960_a_at) / RFU SYPL1 (11715823_x_at) / Fold change /veh SYPL1 (11715823_x_at) / RFU IGFBP7 (11715501_s_at) / Fold change /veh IGFBP7 (11715501_s_at) / RFU REEP3 (11722064_at) / Fold change /veh REEP3 (11722064_at) / RFU IGLL1 (11728026_x_at) / Fold change /veh IGLL1 (11728026_x_at): dose or concentration left out as unconfirmed. The class given is cell-based, human.

`Nc1ncn([C@@H]2O[C@H](CO)[C@@H](O)[C@H]2O)c(=O)n1` [azacitidine]: the “RFU CDHR5 (11726645_a_at)” value turned out to be 45.99 RFU.

The values are drawn from publication PMC5218480 (PLoS ONE, 2017).
